Source: patent US20070203163A1, “Novel Treatment Of Irritable Bowel Syndrome 1” (priority 2003, published 2007)

Test system: visceromotor response to colorectal distension
Assay: Visceromotor response to isobaric colorectal distension in rats
Type: in vivo, rats (Sprague Dawley)
Source text: In this study the effect of acute administration of a compound on the visceromotor response to isobaric colorectal distension in rats is investigated (Ritchie J. Pain from distension of the pelvic colon by inflating a balloon in the irritable bowel syndrome. Gut 1973; 6: 105-112. Ness T J, Gebhart G F. Colorectal distension as a noxious visceral stimulus: physiological and pharmacological characterization of pseudoeffective reflexes in the rat. Brain Research 1988; 450: 153-169).
Colorectal distension (CRD) is performed in all rats (Sprague Dawley) using a paradigm of 12 consecutive distensions (or pulses) at 80 mmHg for 30 seconds each with 4.5 minute intervals (12×80 mmHg). The visceromotor respbnse is determined by quantifying phasic changes in the balloon pressure, which is processed by specially designed computer software. The compound is dissolved in saline and administered at the doses of 1, 3 and 10 μmol/kg. The compound is given intravenously in a volume of 1 mL/kg between the third and fourth distension.

SMILES | effect on visceromotor response (VMR) to colorectal distension (1 μmol/kg i.v.) | effect on visceromotor response (VMR) to colorectal distension (3 μmol/kg i.v.) | effect on visceromotor response (VMR) to colorectal distension (10 μmol/kg i.v.) | average visceromotor response (VMR) during colorectal distension, relative to vehicle treated (100±19) (10 μmol/kg i.v., CRD 12×80 mmHg, mean±SEM, n=8) [%]
COCc1cc(C#N)cc(-c2nc(-c3ccc(F)cn3)no2)c1 [3-[3-(5-Fluoro-pyridin-2-yl)-[1,2,4]oxadiazol-5-yl]-5-methoxymethyl-benzonitrile] | transient inhibitory effect | – | – | –
Cc1cccc(C#Cc2ccccc2)n1 [MPEP, 2-methyl-6-(phenylethynyl)-pyridine] | No effect | modest effect during a few distensions only | decreased the visceromotor response (VMR) | 46±11
